What was measured:
Format in all cases: biochemical
PIM-1 = target: T1, PIM-1 (Homo sapiens, UniProt P11309); assay: PIM-1 kinase activity assay (MBP substrate, 33P-ATP FlashPlate)
T1 construct: expressing PIM-1 kinase domain (29-313) was suspended; made in house; host or cells: E. coli BL21(DE3)pLysS
Method: Inhibitory or exhitory activity of compounds binding to PIM-1 was determined using a kinase assay.
An assay for kinase activity that can be used for PIM kinases, e.g., PIM-1, can be performed according to the following procedure using purified kinase using myelin basic protein (MBP) as substrate.
Coat scintillation plate suitable for radioactivity counting (e.g., FlashPlate from Perkin-Elmer, such as the SMP200(basic)) with kinase+MBP mix (final 100 ng+300 ng/well) at 90-μL/well in kinase buffer. Add compounds at 1 μL/well from 10 mM stock in DMSO. Positive control wells are added with 1 μL of DMSO. Negative control wells are added with 2 μL of EDTA stock solution. ATP solution (10 μL) is added to each well to provide a final concentration of cold ATP is 2 μM, and 50 nCi ATPγ[^33P]. The plate is shaken briefly, and a count is taken to initiate count (IC) using an apparatus adapted for counting with the plate selected, e.g., Perkin-Elmer Trilux. Store the plate at 37° C. for 4 hrs, then count again to provide final count (FC).
Net 33P incorporation (NI) is calculated as: NI=FC−IC.
The effect of the present of a test compound can then be calculated as the percent of the positive control as: % PC=[(NI−NC)/(PC−NC)]×100, where NC is the net incorporation for the negative control, and PC is the net incorporation for the positive control. […]

Pyk2 = target: T2, Pyk2 (Homo sapiens, UniProt Q14289); assay: Pyk-2 inhibitory activity (kinase ELISA, poly(Glu:Tyr))
T2 construct: the Pyk2 was the kinase domain-(His)6 fusion; (His)6 (C); made in house; host or cells: E. coli BL21
Method: Csk (and Pyk2 in a separate assay) were mixed with poly(Glu:Tyr) and coated on an ELISA plate in kinase buffer. Test compounds were added to each well at a concentration of about 200 uM. ATP was added to a final concentration of 2 uM. After 1 hour of incubation at 37 C, phospho-Tyr was detected with ELISA solution. Color development of TMB was measured at 650 nm. The Csk was the (His)6-kinase domain fusion, and the Pyk2 was the kinase domain-(His)6 fusion, both produced in BL21 E. coli. The kinase buffer was 50 mM HEPES, pH 7.2 with 100 uM of manganese. The ELISA solution was 1:1000 at 5% milk.

[1] = target: T3, Pyk2 kinase domain residues 419 to 691 (Homo sapiens, UniProt Q14289); assay: Pyk2 kinase domain AlphaScreen activity and inhibition by ATP analogs; details: Pyk2 at 8 ng/well, ATP at 10 uM; for IC50: fit y = ((Vmax*x^n)/(K^n + x^n)) + Y2; for effect on PYK2: in the concentration tested
T3 construct: PYK2 kinase domain I420-M691; hexa-histidine (thrombin-cleavable, pET15S; leaves GSHM before I420) (N, cleaved yes); made in house; host or cells: E. coli BL21 (DE3) pLysS
Method: Inhibition by ATP analogs was tested with Pyk2 at 8 ng/well and ATP at 10 uM.

[2] = target: T3, Pyk2 kinase domain residues 419 to 691; assay: as above

T3 sequence (Q14289 420-691): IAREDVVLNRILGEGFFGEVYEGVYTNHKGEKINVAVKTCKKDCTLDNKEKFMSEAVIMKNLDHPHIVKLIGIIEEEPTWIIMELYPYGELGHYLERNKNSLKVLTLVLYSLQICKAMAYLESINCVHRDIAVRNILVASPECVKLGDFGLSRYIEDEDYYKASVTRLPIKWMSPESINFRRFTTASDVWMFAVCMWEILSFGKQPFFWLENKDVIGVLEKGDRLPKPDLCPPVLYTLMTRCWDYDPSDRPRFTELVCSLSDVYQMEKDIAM
T1 sequence (P11309 29-313): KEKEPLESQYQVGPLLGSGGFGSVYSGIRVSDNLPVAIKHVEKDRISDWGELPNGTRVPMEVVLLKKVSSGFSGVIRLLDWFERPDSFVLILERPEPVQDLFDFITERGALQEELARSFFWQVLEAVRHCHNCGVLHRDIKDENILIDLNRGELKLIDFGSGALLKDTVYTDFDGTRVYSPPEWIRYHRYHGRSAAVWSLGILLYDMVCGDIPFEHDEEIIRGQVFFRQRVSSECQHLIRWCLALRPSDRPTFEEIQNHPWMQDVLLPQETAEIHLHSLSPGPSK
T2 sequence (Q14289 425-683 limits assumed): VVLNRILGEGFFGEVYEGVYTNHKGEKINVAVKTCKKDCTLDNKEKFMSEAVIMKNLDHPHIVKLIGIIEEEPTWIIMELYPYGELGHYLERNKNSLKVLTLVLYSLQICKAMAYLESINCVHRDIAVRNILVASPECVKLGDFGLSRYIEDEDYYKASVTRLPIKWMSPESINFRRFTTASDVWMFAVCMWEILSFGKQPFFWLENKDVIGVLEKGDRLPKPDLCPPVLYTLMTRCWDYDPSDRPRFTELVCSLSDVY

c1cnc2[nH]ccc2c1 [Formula III, R1=R2=R3=R4=R5=H]
inhibition at 200 µM (PIM-1; at 200 μM concentration): 8%
IC50 (PIM-1; read-out: IC50, inhibitory activity against PIM-1): > 200 µM
IC50 (Pyk2): > 200 µM

Nc1ncnc2c1ncn2[C@@H]1O[C@H](COP(=O)(O)OP(=O)(O)O)[C@@H](O)[C@H]1O [ADT]
affinity with Pyk2 [1]: 14 µM
IC50 [1]: 14.9 µM

Nc1ncnc2c1ncn2C1OC(COP(=O)(O)OP(=O)(O)NP(=O)(O)O)C(O)C1O (centres unmarked) [AMPPNP, 5′-adenylylimidodiphosphate]
IC50 [1]: 18.1 µM

Nc1ncnc2c1ncn2[C@@H]1O[C@H](COP(=O)(O)OP(=O)(O)OP(=O)(O)O)[C@@H](O)[C@H]1O [ATP]
K (Pyk2 activity) ([2]; Pyk2 8 ng/well, 384-well plate, fit y = (Vmax*x)/(K + x)): 7.37 µM
Kd ([2]; Pyk2 at 8 ng/well in 384-well plate, AlphaScreen): 7.34 µM

Nc1ncnc2c1ncn2[C@@H]1O[C@H](COP(=O)(O)OP(=O)(O)OP(O)(O)=S)[C@@H](O)[C@H]1O [ATP-g-S]
affinity with Pyk2 [1]: 14 µM
IC50 [1]: 13.6 µM

Nc1ncnc2c1ncn2[C@@H]1O[C@H](CO)[C@@H](O)[C@H]1O [Adenosine]
effect on PYK2 [1]: little effect

Nc1ncnc2c1ncn2[C@@H]1O[C@H](COP(=O)(O)O)[C@@H](O)[C@H]1O [AMP]
IC50 [1]: 80.2 µM

Nc1ncnc2c1ncn2[C@@H]1O[C@H](COP(=O)(O)OP(=O)(O)CP(=O)(O)O)[C@@H](O)[C@H]1O [AMPPCP]
IC50 [1]: 7690 µM
effect on PYK2 [1]: little effect

Source: patent US20040171062A1, “Methods for the design of molecular scaffolds and ligands” (Plexxikon, Inc., priority 2002, published 2004)
